According to patent publication US4665085A, “Amidines, preparation process and therapeutical application thereof” (Laboratoires Chauvin-Blache, priority 1983, dated 1987):

Legend:
[1] = tested on: male Swiss mice (NMRI-Han); test: Acute toxicity by the intraperitoneal route; format: in vivo; details: observation time 48 hours
Procedure: The mice used are male Swiss mice (NMRI-Han) with an average body weight of 25 g.
The acute toxicity investigation was effected by the intraperitoneal route.
The compounds were injected in aqueous solution, at three dosage levels: 50, 100 and 200 mg/kg.
Table below gives the results obtained with compounds of the formula (I), after an observation time of 48 hours.
The results are expressed as number of dead animals vs. the total number of animals treated.

[2] = tested on: male New-Zealand rabbits; test: Hypotensive activity in rabbits after topical administration (intraocular pressure); format: in vivo; details: rabbit; for Duration of the effect / t (time corresponding to the maximum effect) / Δmax (maximum decrease of the intraocular pressure with respect to the basic value at time zero): 0.5% isotonic aqueous solution instilled in an eye; for effect on pressure in the contralateral eye (evidence of an action at the level of the central nervous system): same experimental conditions (topical instillation)
Procedure: 2. Hypotensive activity in rabbits, after topical administration
The experiments were conducted using male New-Zealand rabbits (2 kg body weight) given "ad libitum" food and drink.
The animals are given a few days to get accustomed to the animal house, are conditioned to stabling in restraining boxes, and to the ocular pressure determinations, in order to prevent pressure deviations induced by stress and handling.
The intraocular pressure is determined with an ALCON aplanation pneumatonograph, standardized by means of an isolated cornea of rabbit, under water pressure.
The compounds are tested in isotonic aqueous solution, at pH 7.25 μl of an 0.5% solution are instilled in an eye, and the intraocular pressure is determined as a function of time.
Table below gives the maximum decrease of the intraocular pressure (Δ max) with respect to the basic value at time zero (time of instillation), the time corresponding to this maximum effect (t), and the total duration of the effect.

[3] = target: T1, platelet α2 adrenergic receptors (Oryctolagus cuniculus, UniProt Q5ZQK3); test: Affinity for platelet α2 adrenergic receptors (inhibition of specific linking of tritiated dihydroergocryptine); format: binding; details: rabbit platelet membranes, tritiated DHE 7 nM, 30 minutes at 25° C.; read-out: CE50 (dosage required to inhibit 50 percent of the linking of tritiated DHE)
T1 construct: from tissue; host or cells: platelet membranes from blood of male New Zealand albino rabbits
T1 sequence (Q5ZQK3 1-451): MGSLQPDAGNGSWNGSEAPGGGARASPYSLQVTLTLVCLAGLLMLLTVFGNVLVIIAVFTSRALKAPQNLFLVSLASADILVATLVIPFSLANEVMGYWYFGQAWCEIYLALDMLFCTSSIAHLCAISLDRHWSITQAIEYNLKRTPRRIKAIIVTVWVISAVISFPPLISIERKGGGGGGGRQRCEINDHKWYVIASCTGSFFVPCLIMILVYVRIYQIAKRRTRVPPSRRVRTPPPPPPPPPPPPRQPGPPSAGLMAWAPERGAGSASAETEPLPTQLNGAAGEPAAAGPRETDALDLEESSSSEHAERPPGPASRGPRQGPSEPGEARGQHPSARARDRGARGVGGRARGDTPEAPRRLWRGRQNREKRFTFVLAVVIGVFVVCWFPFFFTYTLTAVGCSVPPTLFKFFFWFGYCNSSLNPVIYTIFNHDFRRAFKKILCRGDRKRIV
Procedure: 1. Affinity for platelet α2 adrenergic receptors
The compounds of the formula (I) were tested on the platelet adrenergic receptor of rabbit which is exclusively of α2 type (MICHEL T., Nature, 288, (5792) 709, 1980).
The affinity of said compounds for the α2 receptors is determined by measuring the inhibition of the specific linking of tritiated dihydroergocryptine (DHE) by the test compounds.
The rabbits used are male New-Zealand albino rabbits
Blood is taken by the intracardiac route, over ACD (an anticoagulant consisting of an aqueous solution containing 0.27 g citric acid, 0.5 g trisodium citrate and 0.02 g glucose per 20 ml water) at a rate of 1 volume ACD per 6 volumes blood.
The blood is centrifuged 10 minutes at 280 g and the supernatant (PRP) is collected. The PRP is centrifuged 15 minutes at 2000 g.
The platelet sediment is washed twice with buffer I (Tris 50 mM, NaCl 150 mM, EDTA 20 mM, pH 7.5) and is then re-suspended in buffer II (Tris 50 mM, EDTA 5 mM, pH 7.5).
This suspension is frozen at -40° C., and is then defrosted; the procedure is repeated twice. The suspension is then homogenized, after which it is centrifuged 10 minutes at 40,000 g, at 4° C.
The centrifugation sediment is washed with buffer II and is then re-suspended in this same buffer so that the final protein concentration is of the order of 1.5 mg/ml.
The inhibition tests are effected in a final volume of 0.2 ml of buffer II containing the tritiated DHE (7 nM) and varying concentrations of test compound.
The reaction is initiated by adding 0.2 mg proteins and is continued for 30 minutes at 25° C.
The incubation is terminated by adding 2 ml buffer II and by rapidly filtering this mixture in vacuo, through Whatman GF/C filters. The filters are rapidly washed with buffer II and the radioactivity bound to the filter is determined by liquid scintillation.
The dosage required to inhibit 50 percent of the linking of the […] DHE (CE50) is calculated for each of the test compounds.

| SMILES | number of dead animals vs. total number of animals treated ([1]; 100 mg/kg) | number of dead animals vs. total number of animals treated ([1]; 200 mg/kg) | Duration of the effect [2] [mn] | t (time corresponding to the maximum effect) [2] [mn] | Δmax (maximum decrease of the intraocular pressure with respect to the basic value at time zero) [2] [mm Hg] | IC50 [3] [µM] | number of dead animals vs. total number of animals treated ([1]; 50 mg/kg) | effect on pressure in the contralateral eye (evidence of an action at the level of the central nervous system) [2] |
| --- | --- | --- | --- | --- | --- | --- | --- | --- |
| Cc1cc(N)ccc1C=NNC1=NCCN1 [Compound 2] | 0/3 | 3/3 | 300 | 60 | -4.12 ± 0.95 | 10 |  |  |
| COc1cc(O)ccc1C=NNC(=N)N [Compound 9] | 3/3 | 3/3 |  |  |  | 8 | 0/3 |  |
| CC(=NNC(=N)N)c1ccc(O)cc1C [Compound 10] | 0/3 | 2/3 |  |  |  | 11 |  |  |
| Cc1cc(O)ccc1C=NNC(=N)N [Compound 7] | 0/3 | 3/3 |  | 60 | -0.25 ± 1.7 | 6.3 |  |  |
| Cc1cc(N)ccc1C=NNC(=N)N [Compound 8] | 0/3 | 3/3 |  |  |  | 32 |  |  |
| Clc1cccc(Cl)c1C=NNC1=NCCN1 [(2,6-dichlorobenzylidene-hydrazino)-2-imidazoline, reference compound] |  |  |  |  |  |  |  | concomitant decrease of the pressure in the contralateral eye |
| COc1cc(N)ccc1C=NNC1=NCCN1 [Compound 5] | 0/3 |  | 360 | 120 | -3.9 ± 0.5 | 14 |  |  |
| COc1cc(O)ccc1C(C)=NNC1=NCCN1 [Compound 6] |  |  |  |  |  | 2.5 |  |  |
| COc1cc(O)ccc1C(C)=NNC(=N)N [Compound 11] |  |  |  |  |  | 1.3 |  |  |
| COc1cc(O)ccc1C=NNC1=NCCN1 [Compound 4] | 0/3 | 0/3 | 400 | 60 | -2.5 ± 0.57 | 3 |  |  |
| Clc1cccc(Cl)c1N=C1NCCN1 [clonidine, 2,6-dichloro-anilino-2-imidazoline, reference compound] |  |  |  |  |  |  |  | concomitant decrease of the pressure in the contralateral eye |
| Cc1cc(O)ccc1C=NNC1=NCCN1 [Compound 1] | 0/3 | 0/3 | 360 | 60 | -3.12 ± 2.21 | 3 |  |  |
| CC(=NNC1=NCCN1)c1ccc(O)cc1C [Compound 3] | 0/3 | 3/3 | 300 | 30 | -1.83 ± 1 | 5.6 |  |  |
